Test [1] deals with T1, hIBAT (Homo sapiens, UniProt Q12908).
T1 construct: expressed in transfected cells; kept under Puromycin selection
T1 sequence (Q12908 1-348): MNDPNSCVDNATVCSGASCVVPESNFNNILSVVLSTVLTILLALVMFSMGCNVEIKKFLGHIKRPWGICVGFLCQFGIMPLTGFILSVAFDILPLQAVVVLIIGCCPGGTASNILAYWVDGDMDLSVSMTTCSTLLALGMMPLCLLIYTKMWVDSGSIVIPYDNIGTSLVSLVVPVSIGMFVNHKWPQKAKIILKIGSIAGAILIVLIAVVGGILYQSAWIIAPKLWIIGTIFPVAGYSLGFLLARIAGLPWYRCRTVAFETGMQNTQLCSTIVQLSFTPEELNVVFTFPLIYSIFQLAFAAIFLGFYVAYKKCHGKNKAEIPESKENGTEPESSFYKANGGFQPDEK
Put plainly: IBAT (h/m) assay: 3H-taurocholic acid uptake in human IBAT-overexpressing cells. It is filed as cell-based. Conditions: 0.25 μM 3H-taurocholic acid + 5 μM cold taurocholic acid, 20 minutes at 37° C., highest test concentration 10 μM. The procedure:
IBAT (h/m) Assay Protocol
10,000 cells (Human or Mouse IBAT-overexpressing cells) were seeded in 96-wells plate (Corning CLS3809) in 200 μL MEM-alpha medium (Gibco 12571-063) supplemented with 10% FBS (Gibco 10438026) containing Puromycin (Gibco A1113803) (10 μg/mL) and incubated at 37° C. in 5% CO2 for 48 hours. After incubation, media was decanted from the wells and cells were washed two times with 300 μL of basal MEM-alpha medium (FBS-free). After decanting basal MEM-alpha medium each time, plates were tapped against paper towel to ensure maximum removal of residual media. Test inhibitor dilutions (highest test concentration being 10 μM, 3-fold serial dilution, 10 points) prepared in DMSO (Sigma D2650) were added in incubation mix (maintaining 0.2% final DMSO concentration) containing 0.25 μM 3H-taurocholic acid (ARC ART-1368) and 5 μM of cold taurocholic acid (Sigma T4009). 50 μL of incubation mix containing test inhibitors was then added to the wells (in duplicate) and the plates were incubated for 20 minutes in a CO2 incubator at 37° C. After incubation, the reaction was stopped by keeping the plates on ice water mix for 2-3 minutes and then the incubation mix was aspirated completely from the wells. The wells were washed two times with 250 μL of chilled unlabelled 1 mM taurocholic acid dissolved in HEPES (Gibco 15630080)-buffered (10 mM) HBSS (Gibco 14175079) (pH 7.4). The plates were tapped against a paper towel after every wash to ensure maximum removal of blocking buffer.
100 μL of MicroScint-20 (PerkinElmer 6013621) was added to the wells and kept overnight at RT before reading the plates in TopCount NXT™ Microplate Scintillation and Luminescence Counter from PerkinElmer under 3H Test protocol (set at 120 seconds reading time per well).
(§1) Preparation of Test Compound Dilutions
(§2) All test compounds were provided in powder form at RT. 10 mM DMSO stocks of the test compounds were prepared, aliquoted and stored at −20° C. From the 10 mM DMSO stock of the compounds, a 3-fold serial dilution in DMSO was prepared to get a total of 10 dilutions of the test compounds. 0.5 μL of this dilution in DMSO was added to 250 μL of FBS-free basal media containing 3H-taurocholic acid and cold taurocholic acid to prepare the incubation mixture.

Test [2] has as its target T2, hLBAT (Homo sapiens, UniProt Q14973).
T2 construct: expressed in transfected cells; kept under Geneticin selection
T2 sequence (Q14973 1-349): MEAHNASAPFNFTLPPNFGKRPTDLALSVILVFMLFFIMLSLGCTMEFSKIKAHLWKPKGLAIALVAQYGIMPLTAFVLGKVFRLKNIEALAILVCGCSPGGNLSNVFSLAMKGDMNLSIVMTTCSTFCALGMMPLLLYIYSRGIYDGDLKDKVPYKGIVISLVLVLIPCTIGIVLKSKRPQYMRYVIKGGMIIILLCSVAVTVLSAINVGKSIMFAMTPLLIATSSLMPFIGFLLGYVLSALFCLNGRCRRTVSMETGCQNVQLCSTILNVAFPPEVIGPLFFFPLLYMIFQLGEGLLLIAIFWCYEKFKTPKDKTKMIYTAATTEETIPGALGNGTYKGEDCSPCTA
Description: LBAT (h/m) assay: 3H-taurocholic acid uptake in human LBAT-overexpressing cells. In kind it is cell-based. Conditions: 0.3 μM 3H-taurocholic acid + 7.5 μM cold taurocholic acid, 20 minutes at 37° C. As to the method: LBAT (h/m) Assay Protocol
20,000 cells (Human or Mouse LBAT-overexpressing cells) were seeded in 96-wells plate (Corning CLS3809) in 100 μL MEM-alpha medium (Gibco 12571-063) supplemented with 10% FBS (Gibco 10438026) containing Geneticin (Gibco 10131-027) (1 mg/mL) and incubated at 37° C. in 5% CO2 for 24 hours. After incubation, media was decanted from the wells and cells were washed two times with 300 μL of basal MEM-alpha medium (FBS-free). After decanting basal MEM-alpha medium each time, plates were tapped against paper towel to ensure maximum removal of residual media. For human LBAT, incubation mix was prepared by adding test inhibitor dilutions (3-fold serial dilution in DMSO (Sigma D2650), 10 points) in MEM-alpha (without FBS) containing 0.3 μM 3H-taurocholic acid (ARC ART-1368) and 7.5 μM cold taurocholic acid (Sigma T4009) (maintaining 0.2% final DMSO concentration). For mouse LBAT, incubation mix was prepared by adding test inhibitor dilutions (3-fold serial dilution in DMSO, 10 points) in MEM-alpha (without FBS) containing 0.3 μM 3H-taurocholic acid and 25 μM cold taurocholic acid maintaining 0.2% final DMSO concentration). 50 μL of incubation mix containing test inhibitors was then added to the wells (in duplicate) and the plates were incubated for 20 minutes in a CO2 incubator at 37° C. After incubation, the reaction was stopped by keeping the plates on ice water mix for 2-3 minutes and then the incubation mix was aspirated completely from the wells. The wells were washed two times with 250 μL of chilled unlabelled 1 mM taurocholic acid dissolved in HEPES (Gibco 15630080)-buffered (10 mM) HBSS (Gibco 14175079) (pH 7.4). The plates were tapped against a paper towel after every wash to ensure maximum removal of blocking buffer.
100 μL of MicroScint-20 (PerkinElmer 6013621) was added to the wells and kept overnight at RT before reading the plates in TopCount NXT™ Microplate Scintillation and Luminescence Counter from PerkinElmer under 3H Test protocol (set at 120 seconds reading time per well, with normal plate orientation).
as §1, §2

Take `CCCCC1(CC)CN(c2ccc(F)cc2)c2cc(OC)c(CSCC(=O)O)cc2S(=O)(=O)C1` (racemic) [Example 39, 2-(((3-butyl-3-ethyl-5-(4-fluorophenyl)-7-methoxy-1,1-dioxido-2,3,4,5-tetrahydro-1,5-benzothiazepin-8-yl)methyl)thio)acetic acid]: the IC50 in test [1] is 2.5 nM; in test [2] it was > 3330 nM.
In the same order, the values of `CCCCC1(C)CN(c2ccccc2)c2cc(OC)c(CSC(C)(C)C(=O)O)cc2S(=O)(=O)C1` (racemic) [Example 41, 2-(((3-butyl-7-methoxy-3-methyl-1,1-dioxido-5-phenyl-2,3,4,5-tetrahydro-1,5-benzothiazepin-8-yl)methyl)thio)-2-methylpropanoic acid] are > 1110 nM and 134 nM.
With `CCCCC1(CC)CN(c2ccccc2)c2cc(OC)c(CSCC(=O)O)cc2S(=O)(=O)N1` (racemic) [Example 44, 2-(((3-butyl-3-ethyl-7-methoxy-1,1-dioxido-5-phenyl-2,3,4,5-tetrahydro-1,2,5-benzothiadiazepin-8-yl)methyl)thio)acetic acid], the 50% inhibitory concentration (IC50) is 5.2 nM in test [1] and > 1000 nM in test [2].
In the same order, the values of `CCCCC1(CC)CN(c2ccccc2)c2cc(S(C)(=O)=O)c(CSCC(=O)O)cc2S(=O)(=O)N1` (racemic) [Example 47, 2-(((3-butyl-3-ethyl-7-(methylsulfonyl)-1,1-dioxido-5-phenyl-2,3,4,5-tetrahydro-1,2,5-benzothiadiazepin-8-yl)methyl)thio)acetic acid] are 14 nM and > 1000 nM.
With `CCCCC1(CC)CN(c2ccccc2)c2cc(SC)c(CSCC(=O)O)cc2S(=O)(=O)C1` (single isomer, unassigned) [2, enantiomer 2], the IC50 was determined as 2.8 nM in test [1] and 3150 nM in test [2].
In the same order, the values of `CCCCC1(C)CN(c2ccccc2)c2cc(SC)c(CSCC(=O)O)cc2S(=O)(=O)C1` (single isomer, unassigned) [5, enantiomer 2] are 44 nM and 4400 nM.
Taken in the same sequence, the figures for `CCCCC1(CC)CN(c2ccc(F)cc2)c2cc(SC)c(CSCC(=O)O)cc2S(=O)(=O)C1` (single isomer, unassigned) [7, enantiomer 2] were 2.8 nM and 4840 nM.
On to `CCCCC1(CC)CN(c2ccccc2)c2cc(SC)c(CSCC(=O)O)cc2S(=O)(=O)N1` (single isomer, unassigned) [10, enantiomer 1], for which the values for the IC50 in test [1] and in test [2] were 0.3 nM and > 3330 nM, respectively.
Regarding `CCCCC1CN(c2ccccc2)c2cc(SC)c(CSCC(=O)O)cc2S(=O)(=O)N1C` (single isomer, unassigned) [12, enantiomer 1], the values for the concentration for half-maximal inhibition (IC50) in test [1] and in test [2] were 115 nM and > 10000 nM, respectively.
On to `CCCCC1CN(c2ccccc2)c2cc(SC)c(CSCC(=O)O)cc2S(=O)(=O)N1C` (single isomer, unassigned) [12, enantiomer 2], for which the IC50 in test [1] came to 116 nM; in test [2], 34 nM.
Taken in the same sequence, the figures for `CCCCC1(CC)CN(c2ccccc2)c2cc(OC)c(CSCC(=O)O)cc2S(=O)(=O)C1` (single isomer, unassigned) [14, enantiomer 1] were 1.1 nM and > 1000 nM.
As for `CCCCC1(CC)CN(c2ccccc2)c2cc(OC)c(CSCC(=O)O)cc2S(=O)(=O)C1` (single isomer, unassigned) [14, enantiomer 2], the IC50 in test [1] was 64 nM; in test [2] it was > 1000 nM.
Take `CCCCC1(CC)CN(c2ccc(F)cc2)c2cc(SC)c(CSC(C)(C)C(=O)O)cc2S(=O)(=O)C1` (single isomer, unassigned) [16, enantiomer 1]: the results for the half-maximal inhibitory concentration (IC50) in test [1] and in test [2] were 10 nM and 164 nM, respectively.
In the same order, the values of `CCCCC1(CC)CN(c2ccc(F)cc2)c2cc(SC)c(CSC(C)(C)C(=O)O)cc2S(=O)(=O)C1` (single isomer, unassigned) [16, enantiomer 2] are 659 nM and 220 nM.
Consider `CCCCC1(C)CN(c2ccccc2)c2cc(SC)c(CSC(C)(C)C(=O)O)cc2S(=O)(=O)C1` (single isomer, unassigned) [19, enantiomer 1], for which the values for the IC50 in test [1] and in test [2] were 192 nM and 194 nM, respectively.
In the same order, the values of `CCCCC1(C)CN(c2ccccc2)c2cc(SC)c(CSC(C)(C)C(=O)O)cc2S(=O)(=O)C1` (single isomer, unassigned) [19, enantiomer 2] are 1870 nM and 176 nM.
As for `CCCCC1(CC)CN(c2ccccc2)c2cc(SC)c(CSCC(=O)O)cc2S(=O)(=O)N1C` (single isomer, unassigned) [21, enantiomer 1], the values for the 50% inhibitory concentration (IC50) in test [1] and in test [2] were > 243 nM and 3310 nM, respectively.
For the compound `CCCCC1(CC)CN(c2ccccc2)c2cc(SC)c(CSCC(=O)O)cc2S(=O)(=O)N1C` (single isomer, unassigned) [21, enantiomer 2], the IC50 in test [1] is > 554 nM; in test [2], 1900 nM.
Regarding `CCCCC1(CC)CN(c2ccccc2)c2cc(OC)c(CSC(C)(C)C(=O)O)cc2S(=O)(=O)C1` (single isomer, unassigned) [26, enantiomer 1], the IC50 in test [1] was found to be 195 nM; in test [2], 104 nM.
In the case of `CCCCC1(CC)CN(c2ccccc2)c2cc(OC)c(CSC(C)(C)C(=O)O)cc2S(=O)(=O)C1` (single isomer, unassigned) [26, enantiomer 2], the values for the IC50 in test [1] and in test [2] were 5110 nM and 245 nM, respectively.
Taken in the same sequence, the figures for `CCCCC1(C)CN(c2ccccc2)c2cc(OC)c(CSCC(=O)O)cc2S(=O)(=O)C1` (single isomer, unassigned) [28, enantiomer 1] were 7.7 nM and > 10000 nM.
In the same order, the values of `CCCCC1(C)CN(c2ccccc2)c2cc(OC)c(CSCC(=O)O)cc2S(=O)(=O)C1` (single isomer, unassigned) [28, enantiomer 2] are 532 nM and > 10000 nM.
As to `CCCCC1CN(c2ccc(F)cc2)c2cc(OC)c(CSCC(=O)O)cc2S(=O)(=O)N1C` (single isomer, unassigned) [30, enantiomer 1], the IC50 in test [1] and in test [2] was > 10000 nM in each case.

The values are drawn from US20240067617A1 (Albireo AB, priority 2022, published 2024).
